Experimental findings from US7456199B2, “Biphenyl compounds useful as muscarinic receptor antagonists” (Theravance, Inc., priority 2004, dated 2008) are described below.

SMILES strings stand for the structures.

The subject of this assay is MCh depressor responses. Put plainly: Methacholine-induced depressor responses in conscious guinea pigs. The assay is classed as in vivo, guinea pig. To be noted: inhalation.

Source text: Healthy, adult, male Sprague-Dawley guinea pigs (Harlan, Indianapolis, Ind.), weighing between 200 and 300 g were used in these studies. Under isoflurane anesthesia (to effect), animals were instrumented with common carotid artery and jugular vein catheters (PE-50 tubing). The catheters were exteriorized utilizing a subcutaneous tunnel to the subscapular area. All surgical incisions were sutured with 4-0 Ethicon Silk and the catheters locked with heparin (1000 units/mL). Each animal was administered saline (3 mL, SC) at the end of surgery as well as buprenorphine (0.05 mg/kg, IM). Animals were allowed to recover on a heating pad before being returned to their holding rooms.
Approximately 18 to 20 hours following surgery, the animals were weighed and the carotid artery catheter on each animal was connected to a transducer for recording arterial pressure. Arterial pressure and heart rate was recorded using a Biopac MP-100 Acquisition System. Animals were allowed to acclimate and stabilize for a period of 20 minutes.
Each animal was challenged with MCh (0.3 mg/kg, IV) administered through the jugular venous line and the cardiovascular response was monitored for 10 minutes. […] At 1.5 and 24 h post-dosing, the animals were re-challenged with MCh (0.3 mg/kg, IV) and the hemodynamic response was determined. […]

Take `O=C(CCN1CCC(OC(=O)Nc2ccccc2-c2ccccc2)CC1)Nc1ccc(CNCc2ccc(O)cc2)cc1` [Example 1, Biphenyl-2-ylcarbamic Acid 1-(2-{4-[(4-Hydroxybenzylamino)methyl]phenylcarbamoyl}ethyl)piperidin-4-yl Ester]: the “apparent lung-selectivity index (ratio of anti-depressor ID50 to bronchoprotective ID50)” value is “greater than 5”.
